According to US12636294B2, “Compositions and methods for the treatment or prevention of traumatic brain injury” (priority 2019, dated 2026):

Key:
[1] = tested on: rat model of TBI induced by controlled cortical impact (CCI); test: Rotarod test, motor function after CCI injury; type: in vivo, Sprague-Dawley (SD) rats; details: observed; for E (normalised activity value used to calculate synergy), Rotarod latencies: (X-placebo)/(sham-placebo); for Latency: Rotarod 7-days post-head injury, CBD 20 mg/kg I.P LD + MD x 6, isoflurane 1.5% inhaled LD
Method: (§1) The effect of cannabidiol (CBD) combined with isoflurane therapy was assessed using a rat model of TBI induced by controlled cortical impact (CCI). Briefly, Sprague-Dawley (SD) rats were anaesthetised with 3% pentobarbital sodium before fixing the head in a stereotaxic frame. After performing a craniotomy, a contusion injury (CCI) was induced with an IMP-3000 TBI Impactor with a diameter of 5.0 mm, a depth of 2.5 mm, dwell time of 100 ms and velocity of 5 m/s. Control rats underwent the same surgical procedure, including craniotomy, without CCI.
(§2) The randomised groups are detailed in Table 2.
(§3) Behavioural outcomes following CCI were assessed using the Morris Water Maze (MWM), which assesses cognitive defects after CCI injury (see, e.g., Nunez, 2008, Journal of Visualized Experiments, 897) and the Rotarod test, which assesses changes in motor function (see, e.g., Shiotsuki et al., 2010, Journal of Neuroscience Methods, 189: 180-185).
(§4) The combinatorial neuroprotective effects of CBD and isoflurane were assessed using a rat controlled cortical impact model of TBI. Briefly, head injury is induced in the rats by first performing a craniotomy to remove a small disc of bone from the skull and then using a pneumatic rod to directly impact the exposed brain. Controlled Cortical Impact (CCI) parameters used in this study were 2.5 mm depth, 5 m/s velocity, 100 ms dwell time. Sham control animals underwent an identical surgical procedure, including craniotomy, but without the CCI injury.
(§5) Animals were treated with CBD (20 mg/kg) and isoflurane (1.5%) both alone and in combination (Table 2). A loading dose comprising CBD and isoflurane was administered sequentially, with CBD administered 15-30 min post injury and isoflurane administered 1-2 h after injury. Daily maintenance doses of CBD were administered for six consecutive days after administration of the loading dose.
(§6) To determine the neuroprotective effects associated with the combination of CBD and isoflurane, the MWM, a well-established assay for investigation of spatial learning and memory (Nunez, 2008, supra; D'Hooge et al., 2001, Brain Research Reviews, 36: 60-90), and the Rotarod, a device used to monitor motor coordination (Deacon, 2013, Journal of Visualized Expreiments, e2609-e2609; Shitosuki et al., 2010, supra), were used 7-days post-head injury. The predicted combinatorial effects of CBD and isoflurane were calculated using the Bliss independence principle using the equation: Epred A+B=(EA+EB)−(EAEB)
(§7) The activity of the combination for this equation was calculated as: (X−placebo)/(sham−placebo)

[2] = after inhalation; general statement, no experiment described; cited from earlier work
[3] = tested on: rat model of TBI induced by controlled cortical impact (CCI); test: Morris Water Maze (MWM), spatial learning and memory after CCI injury; type: in vivo, Sprague-Dawley (SD) rats; details: observed; for E (normalised activity value used to calculate synergy), MWM proportion of rats that reached the platform / E (normalised activity value used to calculate synergy), MWM instances of rats reaching the platform: (X-placebo)/(sham-placebo); for E (normalised activity value used to calculate synergy), MWM instances of rats reaching the platform: 7-days post-head injury; for Instances of centre of rat corresponding to platform location normalised to the number of rats in group / Number of rats that reached the platform normalised to the total number of rats in each group: MWM 7-days post-head injury; for Instances of centre of rat corresponding to platform location normalised to the number of rats in group: CBD 20 mg/kg I.P LD 15-30 min post-injury + MD x 6, isoflurane 1.5% inhaled LD at 1 hr post-injury; for Number of rats that reached the platform normalised to the total number of rats in each group: CBD 20 mg/kg I.P LD + MD x 6, isoflurane 1.5% inhaled LD
Method: as §1, §2, §3, §4, §5, §6, §7
In the MWM a rat is trained to recognise where a platform is located in a water tank over a series of days. It is then released into the tank and monitored for the ability to locate the platform. A lack of ability to locate the platform is indicative of a spatial memory neurocognitive deficit.

[4] = general statement, no experiment described; cited from earlier work

| Compound | E (normalised activity value used to calculate synergy), Rotarod latencies [1] | Latency [1] | Time to achieve significant CNS concentrations [2] | E (normalised activity value used to calculate synergy), MWM proportion of rats that reached the platform [3] | E (normalised activity value used to calculate synergy), MWM instances of rats reaching the platform [3] | Instances of centre of rat corresponding to platform location normalised to the number of rats in group [3] | Number of rats that reached the platform normalised to the total number of rats in each group [3] | Lipid solubility [4] |
| --- | --- | --- | --- | --- | --- | --- | --- | --- |
| C=C(C)[C@@H]1CCC(C)=C[C@H]1c1c(O)cc(CCCCC)cc1O [CBD, cannabidiol] | −0.04 | 17.60 s | within two minutes | 0.21 | −0.2 | 0.4 | 0.4 | – |
| FC(F)OC(Cl)C(F)(F)F (stereo not drawn) [isoflurane] | −0.09 | 17.33 s | – | 0.50 | 0.67 | 0.83 | 0.5 | – |
| COC(F)(F)C(Cl)Cl [Methoxyflurane, methoxyflurane] | – | – | ≤ 2 min | – | – | – | – | highly lipid-soluble |
